Literature values, collected in patent publication US12414914B2, “Docetaxel composition for injection and preparation method therefor” (BIKA BIOTECHNOLOGY (GUANGZHOU) CO., LTD, priority 2018, dated 2025).

Experiments:
[1] = tested on: microtubules; conditions: compared to paclitaxel
[2] = tested on: cancer cells; conditions: compared to paclitaxel
[3] = tested on: microtubules

CC(=O)O[C@@]12CO[C@@H]1C[C@H](O)[C@@]1(C)C(=O)[C@H](O)C3=C(C)[C@@H](OC(=O)[C@H](O)[C@@H](NC(=O)OC(C)(C)C)c4ccccc4)C[C@@](O)([C@@H](OC(=O)c4ccccc4)[C@H]21)C3(C)C (relative stereo) [docetaxel, [2aR-(2aα, 4β, 4aβ, 6β, 9α, (aR*, βS*), 11α, 12α, 12aα, 12bα)]-β-[[(1,1-dimethylethoxy)carbonyl]amino]-α-hydroxybenzene propanoic acid [12b-acetyloxy-12-benzoyloxy-2a, 3,4,4a, 5,6,9, 10, 11, 12, 12a, 12b-dodecahydro-4,6, 11-trihydroxy-4a, 8, 13, 13-tetramethyl-5-oxo-7, 11-methano-1H-cyclodeca-[3, 4]benz [1,2-b]oxet-9-yl] ester]
activity as microtubule stabilizer and assembly promoter relative to paclitaxel [1]: twice as active as paclitaxel | activity as microtubule-depolymerizing inhibitor relative to paclitaxel [1]: twice as active as paclitaxel | anti-tumor activity in vitro relative to paclitaxel [2]: 1.3˜12 times more active | Affinity to microtubules compared to paclitaxel [3]: 2 times higher | stability in alkaline conditions (alkaline conditions): unstable in alkaline conditions | solubility in ethanol (ethanol): soluble in ethanol | solubility in water (water): practically insoluble in water
